According to paper PMC8155856, “Synthesis and Characterization of Radiogallium-Labeled Cationic Amphiphilic Peptides as Tumor Imaging Agents” (Cancers, 2021):
Non-standard residues stand in square brackets, D forms with d. Residues, ends and D or L forms follow the SMILES beside them. *: point of attachment. FITC = O=C1OC2(c3ccc(O)cc3Oc3cc(O)ccc32)c2ccc(NC(=S)*)cc21; NOTA = O=C(O)CN1CCN(CC(=O)O)CCN(CC(=O)*)CC1; Ahx = NCCCCCC(=O)O

Tests used:
KB cells [1] = experiment: Cellular uptake of FITC-CAPs; type: cell-based; details: 1 μM, 37 °C, 2 h post-incubation, heparin/PBS wash, lysate fluorescence; mean ± SEM, n = 7–13
Description: (§1) Epidermoid carcinoma KB cells were provided by DS Pharma Biomedical Co., Ltd. (Suita, Japan). Mouse fibroblast-like 3T3-L1 cells were obtained from the JCRB Cell Bank (Tokyo, Japan). KB cells were cultured in Eagle’s minimal essential medium supplemented with 10% fetal bovine serum. The 3T3-L1 cells were grown in Dulbecco’s modified Eagle’s medium supplemented with 10% bovine calf serum. All media were supplemented with 100 IU/mL penicillin and 100 μg/mL streptomycin. The cells were maintained in a humidified atmosphere containing 5% CO2 at 37 °C.
(§2) Each cell line was grown to confluence in a 12-well plate and washed with PBS. FITC-CAPs (1 μM) or ^67Ga-NOTA-CAPs (1.0 kBq) (Figure S2C) in a growing medium (0.6 mL) were added to each cell and incubated at 37 °C for each time point. After incubation, the cells were washed twice with 20 units of heparin/PBS (0.5 mL) and lysed using cell lysis buffer M from Fujifilm Wako (Osaka, Japan) at 37 °C for 20 min. The radioactivity and fluorescence of the lysates was measured using a gamma counter and fluorescence microplate reader, respectively, and the protein concentration was determined using a Bradford protein assay kit (Bio-Rad, Hercules, CA, USA). Data are expressed as percentage uptake per milligram of protein (% uptake/mg protein).

3T3-L1 cells [2] = experiment: Cellular uptake of FITC-CAPs; type: cell-based, mouse; details: 1 μM; for Difference in FITC-CAP uptake between KB and 3T3-L1 cells (specificity for cancer cells): 2 h, ANOVA with Tukey's test
Description: as §1, §2

KB cells [3] = experiment: Confocal fluorescence microscopic imaging of FITC-CAPs; type: cell-based; details: 10 µM, 1 h, confocal laser scanning microscope
Description: (§3) KB and 3T3-L1 cells were cultured on 8-well chambered cover glasses (Iwaki, Tokyo, Japan) and incubated with FITC-CAPs (10 μM) for 1 h. The medium was removed and cells were washed twice with ice-cold PBS containing heparin (20 units/mL) and twice with ice-cold PBS. Subsequently, the cells were incubated with Hoechst 33342 (2.5 µg/mL) for 30 min and then washed twice with ice-cold PBS. Fluorescent images were captured using a confocal laser scanning microscope (LSM710, Carl Zeiss Inc., Jena, Germany) with excitation wavelengths of 405 nm (UV laser) for Hoechst 33342 and 488 nm (Ar laser) for FITC-CAPs.

3T3-L1 cells [4] = experiment: as above; type: cell-based, mouse; details: 10 µM, 1 h, confocal laser scanning microscope
Description: as §3

[5] = In vitro stability in mouse plasma; details: freshly prepared mouse plasma, 37 °C, 1 h, 10 μL tracer + 90 μL plasma, CH3CN precipitation, HPLC; mean (SEM) of three experiments
Description: The in vitro stability of ^67Ga-NOTA-CAPs in phosphate-buffered saline (PBS) and mouse plasma was analyzed according to a previously reported procedure [29, 30, 31]. In brief, each radiotracer (10 μL; 2.0–3.0 MBq) was added to PBS (90 μL) and incubated at 37 °C for 24 h or to freshly prepared mouse plasma (90 μL) and incubated at 37 °C for 1 h. […] The mouse plasma solution was added to ice-cold CH3CN (300 μL) and centrifuged at 9400 rcf for 4 min. The supernatant was filtered through a 0.22 μm membrane before HPLC analysis.

[6] = Biodistribution in tumor-bearing mice; details: female, BALB/c nu/nu, mouse, iv, 10 kBq/100 uL, total radioactivity
Description: (§4) BALB/c nu/nu mice (female; 4 weeks old) were supplied by Japan SLC Inc. (Shizuoka, Japan). The mice were maintained in a room at a constant ambient temperature and a 12/12 h light/dark cycle, and they were given free access to food and water. Mice were subcutaneously injected on their right shoulders with approximately 1.0 × 10^7 KB cells. The tumors were allowed to reach 300–500 mm^3 (1‒2 weeks after inoculation) before biodistribution studies were performed.
(§5) The ^67Ga-NOTA-CAPs (10 kBq/100 μL) were intravenously injected into the mice via the tail vein. The mice were sacrificed at the designated time intervals, and the organs were dissected. The tissues were then weighed, and radioactivity was measured by automated gamma counting (n = 5).

KB tumor-bearing mice [7] = experiment: Biodistribution in tumor-bearing mice; details: 30 min after administration, KB xenograft, i.v.; mean (SD) of 4–6 mice
Description: as §4, §5

KB tumor-bearing mice [8] = details: mouse, in vivo
Description: as §4, §5

in vivo = details: female, BALB/c nu/nu, mouse, iv, 10 kBq/100 uL, total radioactivity
Description: as §4, §5

Compound	Cellular uptake of FITC-CAPs into KB cells (KB cells [1])	Difference in FITC-CAP uptake between KB and 3T3-L1 cells (specificity for cancer cells) (3T3-L1 cells [2])	Cellular localization in KB cells (KB cells [3])	Fluorescence signal in 3T3-L1 cells (3T3-L1 cells [4])	Cellular uptake of FITC-CAPs into 3T3-L1 cells (3T3-L1 cells [2]; 37 °C, 2 h post-incubation, heparin/PBS wash, lysate fluorescence, mean ± SEM, n = 7–13)	In vitro stability in mouse plasma, percentage of remaining intact radiotracer [5]	tissue uptake at 2 h ([6]; kidney)	tissue to tissue ratio at 2 h ([6]; tumor/blood)	tissue to tissue ratio at 2 h ([6]; tumor/muscle)	Tumor uptake (KB tumor-bearing mice [7])	Tumor-to-blood ratio compared among tracers (KB tumor-bearing mice [8])	Tumor-to-muscle ratio compared among tracers (KB tumor-bearing mice [8])	tissue uptake at 2 h (in vivo)	tissue uptake at 2 h ([6]; liver)
CC(C)[C@H](NC(=O)[C@H](Cc1c[nH]cn1)NC(=O)[C@@H](NC(=O)[C@H](Cc1c[nH]cn1)NC(=O)[C@@H](NC(=O)[C@H](Cc1c[nH]cn1)NC(=O)[C@@H](NC(=O)[C@@H]1CCCN1C(=O)[C@H]1CCCN1C(=O)[C@@H](NC(=O)[C@H](Cc1c[nH]cn1)NC(=O)[C@@H](NC(=O)[C@H](Cc1c[nH]cn1)NC(=O)[C@@H](NC(=O)[C@H](Cc1c[nH]cn1)NC(=O)[C@@H](NC(=O)[C@H](Cc1c[nH]cn1)NC(=O)CCCCCNC(=S)Nc1ccc2c(c1)C(=O)OC21c2ccc(O)cc2Oc2cc(O)ccc21)C(C)C)C(C)C)C(C)C)C(C)C)[C@@H](C)O)C(C)C)C(C)C)C(=O)N[C@@H](Cc1c[nH]cn1)C(N)=O [FITC-HV6] ({FITC-Ahx}-HVHVHVHV[dP]PTHVHVHVH-NH2)	19.0% ± 0.94 % uptake/mg protein	high selectivity for cancer cells	also accumulated in the cytoplasm and nucleus	low fluorescence signals										
CC(C)[C@H](NC(=O)[C@H](CCCNC(=N)N)NC(=O)[C@@H](NC(=O)[C@H](CCCNC(=N)N)NC(=O)[C@@H](NC(=O)[C@H](CCCNC(=N)N)NC(=O)[C@@H](NC(=O)[C@@H]1CCCN1C(=O)[C@H]1CCCN1C(=O)[C@@H](NC(=O)[C@H](CCCNC(=N)N)NC(=O)[C@@H](NC(=O)[C@H](CCCNC(=N)N)NC(=O)[C@@H](NC(=O)[C@H](CCCNC(=N)N)NC(=O)[C@@H](NC(=O)[C@H](CCCNC(=N)N)NC(=O)CCCCCNC(=S)Nc1ccc2c(c1)C(=O)OC21c2ccc(O)cc2Oc2cc(O)ccc21)C(C)C)C(C)C)C(C)C)C(C)C)[C@@H](C)O)C(C)C)C(C)C)C(=O)N[C@@H](CCCNC(=N)N)C(N)=O [FITC-RV6] ({FITC-Ahx}-RVRVRVRV[dP]PTRVRVRVR-NH2)	36.0% ± 2.63 % uptake/mg protein	low specificity for cancer cells	also accumulated in the cytoplasm and nucleus	strong fluorescence signals	26.6% ± 2.18 % uptake/mg protein									
CC(C)[C@H](NC(=O)[C@H](Cc1c[nH]cn1)NC(=O)[C@@H](NC(=O)[C@H](Cc1c[nH]cn1)NC(=O)[C@@H](NC(=O)[C@H](Cc1c[nH]cn1)NC(=O)[C@@H](NC(=O)[C@@H]1CCCN1C(=O)[C@H]1CCCN1C(=O)[C@@H](NC(=O)[C@H](Cc1c[nH]cn1)NC(=O)[C@@H](NC(=O)[C@H](Cc1c[nH]cn1)NC(=O)[C@@H](NC(=O)[C@H](Cc1c[nH]cn1)NC(=O)[C@@H](NC(=O)[C@H](Cc1c[nH]cn1)NC(=O)CN1CCN(CC(=O)O)CCN(CC(=O)O)CC1)C(C)C)C(C)C)C(C)C)C(C)C)[C@@H](C)O)C(C)C)C(C)C)C(=O)N[C@@H](Cc1c[nH]cn1)C(N)=O [^67Ga-NOTA-HV6, metal not drawn] ({NOTA}-HVHVHVHV[dP]PTHVHVHVH-NH2)						23.3 (0.75) %	23 %ID/g	3.8	4.01 ± 2.05	3.18% ± 0.36 % ID/g				
CC(C)[C@H](NC(=O)[C@H](CCCCN)NC(=O)[C@@H](NC(=O)[C@H](CCCCN)NC(=O)[C@@H](NC(=O)[C@H](CCCCN)NC(=O)[C@@H](NC(=O)[C@@H]1CCCN1C(=O)[C@H]1CCCN1C(=O)[C@@H](NC(=O)[C@H](CCCCN)NC(=O)[C@@H](NC(=O)[C@H](CCCCN)NC(=O)[C@@H](NC(=O)[C@H](CCCCN)NC(=O)[C@@H](NC(=O)[C@H](CCCCN)NC(=O)CN1CCN(CC(=O)O)CCN(CC(=O)O)CC1)C(C)C)C(C)C)C(C)C)C(C)C)[C@@H](C)O)C(C)C)C(C)C)C(=O)N[C@@H](CCCCN)C(N)=O [^67Ga-NOTA-KV6, metal not drawn] ({NOTA}-KVKVKVKV[dP]PTKVKVKVK-NH2)							118 %ID/g	7.7	5.05 ± 1.51	4.46% ± 0.58 % ID/g	significantly higher	significantly greater	32.6 %ID/g	
CC(C)[C@H](NC(=O)[C@H](CCCNC(=N)N)NC(=O)[C@@H](NC(=O)[C@H](CCCNC(=N)N)NC(=O)[C@@H](NC(=O)[C@H](CCCNC(=N)N)NC(=O)[C@@H](NC(=O)[C@@H]1CCCN1C(=O)[C@H]1CCCN1C(=O)[C@@H](NC(=O)[C@H](CCCNC(=N)N)NC(=O)[C@@H](NC(=O)[C@H](CCCNC(=N)N)NC(=O)[C@@H](NC(=O)[C@H](CCCNC(=N)N)NC(=O)[C@@H](NC(=O)[C@H](CCCNC(=N)N)NC(=O)CN1CCN(CC(=O)O)CCN(CC(=O)O)CC1)C(C)C)C(C)C)C(C)C)C(C)C)[C@@H](C)O)C(C)C)C(C)C)C(=O)N[C@@H](CCCNC(=N)N)C(N)=O [^67Ga-NOTA-RV6, metal not drawn] ({NOTA}-RVRVRVRV[dP]PTRVRVRVR-NH2)						27.4 (2.94) %	26.9 %ID/g	8	3.35 ± 0.64	4.76% ± 1.50 % ID/g				53.8 %ID/g
